Legend:
ACHN = experiment: NCI-60 5-dose screen; assay type: cell-based, human; conditions: for GI50 / CC50: Homo sapiens; for CC50: read-out: LC50 (the source's name)
OVCAR-8 = experiment: NCI-60 single-dose screen; assay type: cell-based; conditions: Homo sapiens; OVCAR-8, 10^–5 M; read-out: GI (%)
How it was run: (§1)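 Testing used one compound level, 10^−5 M, on the NCI human cancer cell line panel (60 lines; leukemia through breast).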

COLO205 = experiment: NCI-60 single-dose screen; assay type: cell-based; conditions: Homo sapiens, COLO 205; COLO205, 10^–5 M; read-out: GI (%)
How it was run: as §1

PC-3 = experiment: NCI-60 single-dose screen; assay type: cell-based; conditions: Homo sapiens, PC-3, PC-3, 10^–5 M; read-out: GI (%)
How it was run: as §1

SN12C = experiment: NCI-60 single-dose screen; assay type: cell-based; conditions: Homo sapiens, 10^–5 M, read-out: GI (%)
How it was run: as §1

HCC-2998 = experiment: NCI-60 single-dose screen; assay type: cell-based; conditions: Homo sapiens; HCC-2998, 10^–5 M; read-out: GI (%)
How it was run: as §1

A498 = experiment: NCI-60 single-dose screen; assay type: cell-based; conditions: Homo sapiens; A498, 10^–5 M; read-out: GI (%)
How it was run: as §1

SNB-19 = experiment: NCI-60 single-dose screen; assay type: cell-based; conditions: Homo sapiens; SNB-19, 10^–5 M; read-out: GI (%)
How it was run: as §1

SK-MEL-5 = experiment: NCI-60 single-dose screen; assay type: cell-based; conditions: Homo sapiens; SK-MEL-5, 10^–5 M; read-out: GI (%)
How it was run: as §1

MDA-MB-435 = experiment: NCI-60 single-dose screen; assay type: cell-based; conditions: Homo sapiens; MDA-MB-435, 10^–5 M; read-out: GI (%)
How it was run: as §1

CAKI-1 = experiment: NCI-60 single-dose screen; assay type: cell-based; conditions: Homo sapiens; CAKI-1, 10^–5 M; read-out: GI (%)
How it was run: as §1

OVCAR-5 = experiment: NCI-60 single-dose screen; assay type: cell-based; conditions: Homo sapiens; OVCAR-5, 10^–5 M; read-out: GI (%)
How it was run: as §1

KM12 = experiment: NCI-60 single-dose screen; assay type: cell-based; conditions: Homo sapiens; KM12, 10^–5 M; read-out: GI (%)
How it was run: as §1

MOLT-4 = experiment: NCI-60 5-dose screen; assay type: cell-based, human; conditions: for GI50 / CC50: Homo sapiens; for CC50: read-out: LC50 (the source's name)
RPMI-8226 = experiment: NCI-60 5-dose screen; assay type: cell-based, human; conditions: for GI50 / CC50: Homo sapiens; for CC50: read-out: LC50 (the source's name)
LN-229 = experiment: CellTiter-Glo 2.0 cytotoxicity, glioblastoma; assay type: cell-based, human; conditions: LN-229, 24 h
Description: (§2) Cytotoxicity of compounds was assessed using the CellTiter-Glo® 2.0 Assay (Promega, Madison, WI, USA) on human gingival fibroblasts (HGF), osteosarcoma (HOS and MG-63) and glioblastoma (LN-229 and U-118MG) cells, according to the manufacturer’s instructions. HGF, HOS, MG-63 and U-118MG cells were purchased from Cytion GmbH, Eppelheim, Germany, and LN-229 (CRL-2611) from the American Type Culture Collection (ATCC), Manassas, VA, USA. Cells were seeded (50,000 cells/mL—HGF, 100,000 cells/mL—tumor cells) into 96-well opaque white tissue culture-treated plates and allowed to adhere overnight in αMEM medium with 10% fetal bovine serum and 1% antibiotic-antimycotic (all from PAN—Biotech GmbH, Aidenbach, Germany). Cells were incubated with compounds (10 or 50 µM) for 24 h, then CellTiter-Glo® reagent was added and luminescence was recorded using a FLUOstar® Omega microplate reader (BMG LABTECH, Ortenberg, Germany). The experiments were carried out in triplicate, and the viability of treated cells was expressed as a percentage of the viability of control cells (untreated). Data were represented as means ± standard deviations. Stock solutions of compounds were prepared in DMSO, then diluted in complete cell culture media. […] Data were analyzed with independent two-tailed (Student’s) t-test, considering p < 0.05 statistically significant.

U-118MG = experiment: CellTiter-Glo 2.0 cytotoxicity, glioblastoma; assay type: cell-based, human; conditions: 50 µM, 24 h
Description: as §2

HT29 = experiment: NCI-60 5-dose screen; assay type: cell-based, human; conditions: for GI50 / CC50: Homo sapiens; for GI50: HT-29; for CC50: HT-29, read-out: LC50 (the source's name)
MALME-3M = experiment: NCI-60 5-dose screen; assay type: cell-based, human; conditions: for GI50 / CC50: Homo sapiens, Malme-3M; for CC50: read-out: LC50 (the source's name); for TGI: MALME-3M
MDA-MB-231/ATCC = experiment: NCI-60 5-dose screen; assay type: cell-based, human; conditions: for GI50 / CC50: Homo sapiens; for CC50: read-out: LC50 (the source's name)
EKVX = experiment: NCI-60 single-dose screen; assay type: cell-based, human; conditions: Homo sapiens, 10^–5 M, read-out: GI (%)
Description: (§3) In the next step, all synthesized compounds were electronically submitted and accepted for testing to the National Cancer Institute (NCI) platform, for the single dose (10^−5 M) screening against a panel of 60 human tumor cell lines, representing leukemia, melanoma, and cancers of the lung, colon, central nervous system, ovary, kidney, prostate, and breast. The results are summarized in Table 2, with the best values highlighted in red (Figures S1–S14).

UO-31 = experiment: NCI-60 single-dose screen; assay type: cell-based, human; conditions: UO-31, 10^–5 M
Description: as §3

NCI-H226 = experiment: NCI-60 single-dose screen; assay type: cell-based, human; conditions: NCI-H226, 10^–5 M; for inhibition at 10 µM: Homo sapiens, read-out: GI (%)
Description: as §3

BT-549 = experiment: NCI-60 single-dose screen; assay type: cell-based, human; conditions: BT-549, 10^–5 M
Description: as §3

U251 = experiment: NCI-60 single-dose screen; assay type: cell-based, human; conditions: U251, 10^–5 M
Description: as §3

MDA-MB-468 [1] = experiment: NCI-60 single-dose screen; assay type: cell-based, human; conditions: MDA-MB-468, 10^–5 M
Description: as §3

HOP-62 = experiment: NCI-60 single-dose screen; assay type: cell-based, human; conditions: HOP-62, 10^–5 M
Description: as §3

SF-295 = experiment: NCI-60 single-dose screen; assay type: cell-based, human; conditions: SF-295, 10^–5 M
Description: as §3

MDA-MB-468 [2] = experiment: NCI-60 5-dose screen; assay type: cell-based, human; conditions: for GI50 / CC50: Homo sapiens; for CC50: read-out: LC50 (the source's name)

For O=C1C(Nc2ccc(I)cc2)=CC(c2ccc(O)c(O)c2)N1c1ccc(I)cc1 (stereo not shown) [3h], the TGI (ACHN) was greater than 100 µM, the GI50 (ACHN) was greater than 100 µM and the CC50 (ACHN) was greater than 100 µM. The inhibition at 10 µM (OVCAR-8) was 37%, the inhibition at 10 µM (COLO205) was 98% and the inhibition at 10 µM (PC-3) was greater than 70%. The inhibition at 10 µM (SN12C) was 100%, the inhibition at 10 µM (HCC-2998) was 98% and the inhibition at 10 µM (A498) was 61%. The inhibition at 10 µM (SNB-19) was 69%, the inhibition at 10 µM (SK-MEL-5) was 94% and the inhibition at 10 µM (MDA-MB-435) was 73%. The inhibition at 10 µM (CAKI-1) was 44%, the inhibition at 10 µM (OVCAR-5) was 22% and the inhibition at 10 µM (KM12) was 100%. It also gave a TGI (MOLT-4) of 4.17 µM, a GI50 (MOLT-4) of 2.08 µM and a CC50 (MOLT-4) of 8.35 µM. It also gave a TGI (RPMI-8226) of 6.01 µM, a GI50 (RPMI-8226) of 2.4 µM and a CC50 (RPMI-8226) greater than 100 µM. The “cytotoxicity (activity in words)” value (LN-229) was “ineffective”, the “cytotoxicity (activity in words)” value (U-118MG) was “moderate activity” and the TGI (HT29) was greater than 100 µM. The GI50 (HT29) was 8.8 µM, the CC50 (HT29) was greater than 100 µM and the GI50 (MALME-3M) was 2.68 µM. It also gave a CC50 (MALME-3M) greater than 100 µM, a TGI (MALME-3M) greater than 100 µM and a TGI (MDA-MB-231/ATCC) greater than 100 µM. The GI50 (MDA-MB-231/ATCC) was greater than 100 µM, the CC50 (MDA-MB-231/ATCC) was greater than 100 µM and the inhibition at 10 µM (EKVX) was 22%. The “GI (%)” value (UO-31) was 54%, the inhibition at 10 µM (NCI-H226) was 35% and the “GI (%)” value (BT-549) was 81%. The “GI (%)” value (U251) was 58%, the “GI (%)” value (MDA-MB-468 [1]) was 100 ^h1% and the “GI (%)” value (HOP-62) was 82%. For the same molecule, the “GI (%)” value (SF-295) was 56%, the TGI (MDA-MB-468 [2]) was greater than 100 µM and the GI50 (MDA-MB-468 [2]) was 3.1 µM. The CC50 (MDA-MB-468 [2]) was greater than 100 µM.

In the case of COc1cc(OC)c(C2C=C(Nc3ccc(I)cc3)C(=O)N2c2ccc(I)cc2)cc1OC (stereo not shown) [3k], the inhibition at 10 µM (OVCAR-8) is reported as 0%, the inhibition at 10 µM (COLO205) is reported as 0% and the inhibition at 10 µM (PC-3) is reported as 0%. It also gave an inhibition at 10 µM (SN12C) of 2%, an inhibition at 10 µM (HCC-2998) of 5% and an inhibition at 10 µM (A498) of 0%. It also gave an inhibition at 10 µM (SNB-19) of 0%, an inhibition at 10 µM (SK-MEL-5) of 12% and an inhibition at 10 µM (MDA-MB-435) of 0%. For the same molecule, the inhibition at 10 µM (CAKI-1) was 15%, the inhibition at 10 µM (OVCAR-5) was 0% and the inhibition at 10 µM (KM12) was 2%. The “cytotoxicity (activity in words)” value (LN-229) was “ineffective”, the “cytotoxicity (activity in words)” value (U-118MG) was “moderate activity” and the inhibition at 10 µM (EKVX) was 0%. For the same molecule, the “GI (%)” value (UO-31) was 0%, the inhibition at 10 µM (NCI-H226) was 0% and the “GI (%)” value (BT-549) was 10%. The “GI (%)” value (U251) was 0%, the “GI (%)” value (MDA-MB-468 [1]) was 44% and the “GI (%)” value (HOP-62) was 0%. For the same molecule, the “GI (%)” value (SF-295) was 2%.

N#Cc1ccc(C2C=C(Nc3ccc(I)cc3)C(=O)N2c2ccc(I)cc2)cc1 (stereo not shown) [3l] was tested, and the TGI (ACHN) was greater than 100 µM, the GI50 (ACHN) was 5.36 µM and the CC50 (ACHN) was greater than 100 µM. For the same molecule, the inhibition at 10 µM (OVCAR-8) was 30%, the inhibition at 10 µM (COLO205) was 46% and the inhibition at 10 µM (PC-3) was 45%. The inhibition at 10 µM (SN12C) was 59%, the inhibition at 10 µM (HCC-2998) was 50% and the inhibition at 10 µM (A498) was 88%. For the same molecule, the inhibition at 10 µM (SNB-19) was 35%, the inhibition at 10 µM (SK-MEL-5) was 24% and the inhibition at 10 µM (MDA-MB-435) was 19%. It also gave an inhibition at 10 µM (CAKI-1) of 62%, an inhibition at 10 µM (OVCAR-5) of 11% and an inhibition at 10 µM (KM12) of 52%. The TGI (MOLT-4) was greater than 100 µM, the GI50 (MOLT-4) was 2.11 µM and the CC50 (MOLT-4) was greater than 100 µM. It also gave a TGI (RPMI-8226) greater than 100 µM, a GI50 (RPMI-8226) of 3.07 µM and a CC50 (RPMI-8226) greater than 100 µM. The “cytotoxicity (activity in words)” value (LN-229) was “ineffective”, the “cytotoxicity (activity in words)” value (U-118MG) was “moderate activity” and the TGI (HT29) was greater than 100 µM. The GI50 (HT29) was 9.43 µM, the CC50 (HT29) was greater than 100 µM and the GI50 (MALME-3M) was 2.07 µM. For the same molecule, the CC50 (MALME-3M) was greater than 100 µM, the TGI (MALME-3M) was greater than 100 µM and the TGI (MDA-MB-231/ATCC) was 9.63 µM. It also gave a GI50 (MDA-MB-231/ATCC) of 2.5 µM, a CC50 (MDA-MB-231/ATCC) greater than 100 µM and an inhibition at 10 µM (EKVX) of 100%. For the same molecule, the inhibition at 10 µM (NCI-H226) was 100%, the “GI (%)” value (NCI-H226) was 100 ^i1% and the TGI (MDA-MB-468 [2]) was greater than 100 µM. It also gave a GI50 (MDA-MB-468 [2]) of 2.7 µM and a CC50 (MDA-MB-468 [2]) greater than 100 µM.
